Results taken from patent publication US10874743B2, “IRAK degraders and uses thereof” (Kymera Therapeutics, Inc., priority 2017, dated 2020).

Legend:
[1] = test system: OCI-LY10 cells; test: OCI-LY-10 CTG cell viability assay (EC50); type: cell-based; conditions: Homo sapiens, 96 h, CellTiter-Glo cell viability, 4 days incubation, top concentration 10 μM, read-out: OCI-LY10 IRAK4 EC50
Summary of the method: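 OCI-LY10 cells were exposed to a 9-dose, 1:3 series (top 10 μM, 0.2% DMSO) for 4 days at 37 °C. Viability was measured by CellTiter-Glo luminescence, and EC50 came from a three-parameter logistic fit.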

[2] = target: T1, IRAK4 (Homo sapiens, UniProt Q9NWZ3); test: OCI-LY-10 MSD assay for IRAK4 DC50; type: cell-based; set-up: endogenous in cells; host or cells: OCI-LY10; conditions: OCI-LY10 cells, 4 hr incubation, concentration required to degrade 50% of protein
T1 sequence (Q9NWZ3 1-460): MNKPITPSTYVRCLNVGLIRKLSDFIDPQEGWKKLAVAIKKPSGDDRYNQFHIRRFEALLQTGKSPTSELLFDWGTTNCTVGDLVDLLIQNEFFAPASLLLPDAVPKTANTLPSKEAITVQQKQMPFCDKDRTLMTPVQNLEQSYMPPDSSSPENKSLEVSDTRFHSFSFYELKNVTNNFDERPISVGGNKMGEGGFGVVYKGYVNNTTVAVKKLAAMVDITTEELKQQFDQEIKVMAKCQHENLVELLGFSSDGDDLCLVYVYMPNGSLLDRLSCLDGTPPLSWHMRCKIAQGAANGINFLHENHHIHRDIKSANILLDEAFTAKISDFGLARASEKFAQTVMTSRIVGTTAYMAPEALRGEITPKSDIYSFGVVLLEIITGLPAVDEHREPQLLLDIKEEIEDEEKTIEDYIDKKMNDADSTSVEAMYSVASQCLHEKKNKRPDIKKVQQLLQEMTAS
Summary of the method: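 IRAK4 level was quantified by MSD electrochemiluminescence (anti-IRAK4 capture antibody, rabbit anti-IRAK4 detection antibody) in RIPA lysates of OCI-Ly10 cells. Cells had been treated with compound for 4 hr (8-point, 3-fold serial dilution). Remaining protein versus concentration was fitted to a sigmoidal curve to give DC50.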

Row | Structure (SMILES) | EC50 [1] [nM] | DC50 [2] [nM]
1 | NC(=O)c1nn(-c2ccc(CNCCOCCOCCCc3ccc4c(c3)oc(=O)n4C3CCC(=O)NC3=O)cc2)cc1NC(=O)c1coc(-c2ccnc(NCC(F)(F)F)c2)n1 (centres unmarked) [I-568] | 100 to 500 | < 50
2 | O=C1CCC(N2C[C@H](c3ccc(C#CCN4CCO[C@@H](CNCc5ccc(-n6cc(NC(=O)c7coc(-c8ccnc(NCC9CC9)c8)n7)c(C(F)F)n6)cc5)C4)cc3)OC2=O)C(=O)N1 (some centres unmarked) [I-585] | < 50 | < 50
3 | CN(CC1CCN(CCC#Cc2ccc3c(c2)n(C)c(=O)n3C2CCC(=O)NC2=O)CC1)C(=O)c1ccc(-n2cc(NC(=O)c3coc(-c4ccnc(NCC5CC5)c4)n3)c(C(F)F)n2)cc1 (centres unmarked) [I-504] | < 50 | < 50
4 | Cn1cc(NC(=O)c2coc(-c3ccnc(NCC(F)(F)F)c3)n2)c(C(=O)NCCOCCOCCOCCCc2ccc3c(c2)n(C)c(=O)n3C2CCC(=O)NC2=O)n1 (centres unmarked) [I-463] | > 1000 | > 1000
5 | O=C1CCC(N2C[C@H](c3cccc(C#CCN4CCO[C@@H](CNCc5ccc(-n6cc(NC(=O)c7coc(-c8ccnc(NCC9CC9)c8)n7)c(C(F)F)n6)cc5)C4)c3)OC2=O)C(=O)N1 (some centres unmarked) [I-584] | 50 to 100 | < 50
6 | CN(CCOCCOCCOCCNc1cccc2c1C(=O)N(C1CCC(=O)NC1=O)C2=O)C(=O)c1nn(C)cc1NC(=O)c1coc(-c2ccnc(NCC(F)(F)F)c2)n1 (centres unmarked) [I-456] | > 1000 | > 1000
7 | CN[C@@H](C)C(=O)N[C@H](C(=O)N1Cc2cc(OCCOCCOCCOCCOCCNC(=O)c3ccc(-n4cc(NC(=O)c5coc(-c6ccnc(NCC7CC7)c6)n5)c(C(F)F)n4)cc3)ccc2C[C@H]1C(=O)N[C@@H]1CCCc2ccccc21)C(C)(C)C [I-519, 2-[2-(Cyclopropylmethylamino)-4-pyridyl]-N-[3-(difluoromethyl)-1-[4-[2-[2-[2-[2-[2-[[(3S)-2-[(2S)-3,3-dimethyl-2-[[(2S)-2-(methylamino)propanoyl]amino]butanoyl]-3-[[(1R)-tetralin-1-yl]carbamoyl]-3,4-dihydro-1H-isoquinolin-7-yl]oxy]ethoxy]ethoxy]ethoxy]ethoxy]ethylcarbamoyl]phenyl]pyrazol-4-yl]oxazole-4-carboxamide] | 500 to 1000 | 500 to 1000
8 | O=C1CCC(n2c(=O)oc3cc(CCCOCCOCCNC(=O)c4ccc(-n5cc(NC(=O)c6coc(-c7ccnc(NCC8CC8)c7)n6)c(C(F)F)n5)cc4)ccc32)C(=O)N1 (centres unmarked) [I-462] | < 50 | < 50
9 | CN(CCCCOCCCCc1ccc2c(c1)n(C)c(=O)n2C1CCC(=O)NC1=O)C(=O)c1ccc(-n2cc(NC(=O)c3coc(-c4ccnc(NCC(F)(F)F)c4)n3)c(C(N)=O)n2)cc1 (centres unmarked) [I-489] | 500 to 1000 | < 50
10 | O=C1CCC(N2C[C@H](c3ccc(C#CCN4CCO[C@@H](CNC(=O)c5ccc(-n6cc(NC(=O)c7coc(-c8ccnc(NCC9CC9)c8)n7)c(C(F)F)n6)cc5)C4)cc3)OC2=O)C(=O)N1 (some centres unmarked) [I-509] | < 50 | < 50
11 | CN1CCN(C(=O)c2nn(-c3ccc(CNCCCCOCCCCc4ccc5c(c4)n(C)c(=O)n5C4CCC(=O)NC4=O)cc3)cc2NC(=O)c2coc(-c3ccnc(NCC(F)(F)F)c3)n2)CC1 (centres unmarked) [I-559] | 500 to 1000 | > 1000
12 | CN[C@@H](C)C(=O)N[C@H](C(=O)N1Cc2cc(OCCOCCOCCOCCOCCNCc3nn(C)cc3NC(=O)c3coc(-c4ccnc(NCC(F)(F)F)c4)n3)ccc2C[C@H]1C(=O)N[C@@H]1CCCc2ccccc21)C(C)(C)C [I-682] | > 1000 | > 1000
13 | CN[C@@H](C)C(=O)N[C@H](C(=O)N1CCC[C@H]1c1nc(C(=O)c2cccc(OCCOCCOCCNCc3ccc(-n4cc(NC(=O)c5coc(-c6ccnc(NCC7CC7)c6)n5)c(C(F)F)n4)cc3)c2)cs1)C1CCCCC1 [I-556] | > 1000 | 500 to 1000
14 | Cn1cc(NC(=O)c2coc(-c3ccnc(NCC(F)(F)F)c3)n2)c(C(=O)NCCOCCOCCOCCOCCOCCNc2cccc3c2C(=O)N(C2CCC(=O)NC2=O)C3=O)n1 (centres unmarked) [I-449] | > 1000 | > 1000
15 | CN[C@@H](C)C(=O)N[C@H](C(=O)N1Cc2cc(OCCOCCOCCOCCNC(=O)c3ccc(-n4cc(NC(=O)c5coc(-c6ccnc(NCC7CC7)c6)n5)c(C(F)F)n4)cc3)ccc2C[C@H]1C(=O)N[C@@H]1CCCc2ccccc21)C(C)(C)C [I-521] | > 1000 | > 1000
16 | O=C1CCC(N2C[C@H](c3ccc(C#CCCOCCCNCc4ccc(-n5cc(NC(=O)c6coc(-c7ccnc(NCC8CC8)c7)n6)c(C(F)F)n5)cc4)cc3)OC2=O)C(=O)N1 (some centres unmarked) [I-580] | < 50 | 50 to 100
17 | Cn1ncc2nc(Nc3cnn(CCOCCOCCNc4cccc5c4C(=O)N(C4CCC(=O)NC4=O)C5=O)c3)nc(NC3CCC(N4CCOCC4)CC3)c21 (centres unmarked) [I-692] | > 1000 | > 1000

Next, values leading:

Row | EC50 [1] [nM] | DC50 [2] [nM] | Structure (SMILES)
18 | 100 to 500 | 50 to 100 | Cn1c(=O)n(C2CCC(=O)NC2=O)c2ccc(CCCN3CCO[C@@H](CNCc4ccc(-n5cc(NC(=O)c6coc(-c7ccnc(NCC(F)(F)F)c7)n6)c(C(F)F)n5)cc4)C3)cc21 (some centres unmarked) [I-614]
19 | < 50 | < 50 | Cn1c(=O)n(C2CCC(=O)NC2=O)c2cccc(CCCNCC3COC4C(CNCc5ccc(-n6cc(NC(=O)c7coc(-c8ccnc(NCC(F)(F)F)c8)n7)c(C(F)F)n6)cc5)COC34)c21 (centres unmarked) [I-536]
20 | 500 to 1000 | < 50 | Cn1c(=O)n([C@@H]2CCC(=O)NC2=O)c2cccc(CCCOCCOCCNCc3ccc(-n4cc(NC(=O)c5coc(-c6ccnc(NCC(F)(F)F)c6)n5)c(C(N)=O)n4)cc3)c21 [I-689]
21 | 100 to 500 | < 50 | Cn1c(=O)n(C2CCC(=O)NC2=O)c2cccc(CCCN3CCO[C@H](CNCc4ccc(-n5cc(NC(=O)c6coc(-c7ccnc(NCC(F)(F)F)c7)n6)c(C(N)=O)n5)cc4)C3)c21 (some centres unmarked) [I-593]
22 | < 50 | < 50 | O=C1CCC(n2c(=O)n(CCOCCOCCNCc3ccc(-n4cc(NC(=O)c5coc(-c6ccnc(NCC7CC7)c6)n5)c(C(F)F)n4)cc3)c3ccccc32)C(=O)N1 (centres unmarked) [I-552]
23 | < 50 | < 50 | CN(CC[C@H]1CN(CCCc2ccc3c(c2)n(C)c(=O)n3C2CCC(=O)NC2=O)CCO1)Cc1ccc(-n2cc(NC(=O)c3coc(-c4ccnc(NCC5CC5)c4)n3)c(C(F)F)n2)cc1 (some centres unmarked) [I-592]
24 | < 50 | < 50 | Cn1c(=O)n(C2CCC(=O)NC2=O)c2ccc(CCCNCC3COC4C(CNCc5ccc(-n6cc(NC(=O)c7coc(-c8ccnc(NCC9CC9)c8)n7)c(C(F)F)n6)cc5)COC34)cc21 (centres unmarked) [I-537]
25 | < 50 | < 50 | O=C1CCC(n2c(=O)oc3cc(CCCOCCCNCc4ccc(-n5cc(NC(=O)c6coc(-c7ccnc(NCC8CC8)c7)n6)c(C(F)F)n5)cc4)ccc32)C(=O)N1 (centres unmarked) [I-549]
26 | < 50 | < 50 | Cn1c(=O)n(C2CCC(=O)NC2=O)c2ccc(CCCN3CCO[C@@H](CNCc4ccc(-n5cc(NC(=O)c6coc(-c7ccnc(NCC8CC8)c7)n6)c(C(F)F)n5)cc4)C3)cc21 (some centres unmarked) [I-574]
27 | < 50 | 50 to 100 | Cn1c(=O)n(C2CCC(=O)NC2=O)c2cccc(CCCCOCCCCNCc3ccc(-n4cc(NC(=O)c5coc(-c6ccnc(NCC7CC7)c6)n5)c(C(F)F)n4)cc3)c21 (centres unmarked) [I-523]
28 | < 50 | < 50 | Cn1c(=O)n(C2CCC(=O)NC2=O)c2cccc(CCCOCCNCc3ccc(-n4cc(NC(=O)c5coc(-c6ccnc(NCC7CC7)c6)n5)c(C(F)F)n4)cc3)c21 (centres unmarked) [I-530]
29 | < 50 | < 50 | Cn1c(=O)n(C2CCC(=O)NC2=O)c2ccc(CNC(=O)OCCCNCc3ccc(-n4cc(NC(=O)c5coc(-c6ccnc(NCC7CC7)c6)n5)c(C(F)F)n4)cc3)cc21 (centres unmarked) [I-545]
30 | < 50 | < 50 | O=C1CCC(n2c(=O)oc3c(CCCOCCCNCc4ccc(-n5cc(NC(=O)c6coc(-c7ccnc(NCC8CC8)c7)n6)c(C(F)F)n5)cc4)cccc32)C(=O)N1 (centres unmarked) [I-548]
31 | 500 to 1000 | < 50 | Cn1c(=O)n(C2CCC(=O)NC2=O)c2ccc(CCCOCCNCc3ccc(-n4cc(NC(=O)c5coc(-c6ccnc(NCC(F)(F)F)c6)n5)c(C(F)F)n4)cc3)cc21 (centres unmarked) [I-532]
32 | 50 to 100 | < 50 | Cn1c(=O)n([C@@H]2CCC(=O)NC2=O)c2ccc(CCCCOCCCCNCc3ccc(-n4cc(NC(=O)c5coc(-c6ccnc(NCC7CC7)c6)n5)c(C(F)F)n4)cc3)cc21 (single isomer, unassigned) [I-700]
33 | 100 to 500 | 50 to 100 | CC(C)(CCOCCCc1cccc2c1oc(=O)n2C1CCC(=O)NC1=O)NC(=O)c1ccc(-n2cc(NC(=O)c3coc(-c4ccnc(NCC5CC5)c4)n3)c(C(F)F)n2)cc1 (centres unmarked) [I-478]
34 | < 50 | < 50 | O=C1CCC(n2c(=O)oc3c(CCCOCCOCCNCc4ccc(-n5cc(NC(=O)c6coc(-c7ccnc(NCC8CC8)c7)n6)c(C(F)F)n5)cc4)cccc32)C(=O)N1 (centres unmarked) [I-551]
